# Assays:
# [1] = target: T1, thymidine kinase from Thermotoga maritima (TmTK) (Thermotoga maritima, UniProt Q9WYN2); assay: kinetic experiments with type-II kinases; format: biochemical
# T1 construct: made in house; host or cells: E. coli, pET-14b (Novagen)
# Description: (§1) To investigate the kinetic properties of the above-described fNAs in vitro, a pET-based protein overexpression system was established for the production and purification of milligram quantities of individual dNKs. The genes for human 2′-deoxycytidine kinase (dCK) and fruitfly dNK (DmdNK), as well as the thymidine kinase from the bacterium Thermotoga maritime (TmTK) were subcloned into pET-14b (Novagen), an IPTG-inducible protein overexpression system that also introduces a poly-His tag at the target protein's amino terminus. […]
# (§2) Experimentally, the kinase-catalyzed phosphotransfer reaction was monitored at 37° C. via a spectrophotometric, couple-enzyme assay (as described in Munch-Petersen, B., Knecht, W., Lenz, C., Sondergaard, L. and Piskur, J. (2000) functional expression of a multisubstrate deoxyribonucleoside kinase from Drosophila melanogaster and its C-terminal deletion mutants. J Bio chem, 275, 6673-6679; Schelling, P., Folkers, G. and Schapozza, L. (2001) A spectrophotometric assay for quantitative determination of kcat of herpes simplex virus type 1 thymidine kinase substrates. Anal Biochem, 295, 82-87, which are hereby incorporated by reference herein). […] The consumption of NADH can be monitored spectrophotometrically at 340 nm. […]
# [2] = target: T2, human 2′-deoxycytidine kinase (dCK) (Homo sapiens, UniProt P27707); assay: spectrophotometric coupled-enzyme kinase assay, dCK; format: biochemical; details: FIG. 10A
# T2 construct: made in house; host or cells: E. coli, pET-14b (Novagen)
# T2 sequence (P27707 whole entry): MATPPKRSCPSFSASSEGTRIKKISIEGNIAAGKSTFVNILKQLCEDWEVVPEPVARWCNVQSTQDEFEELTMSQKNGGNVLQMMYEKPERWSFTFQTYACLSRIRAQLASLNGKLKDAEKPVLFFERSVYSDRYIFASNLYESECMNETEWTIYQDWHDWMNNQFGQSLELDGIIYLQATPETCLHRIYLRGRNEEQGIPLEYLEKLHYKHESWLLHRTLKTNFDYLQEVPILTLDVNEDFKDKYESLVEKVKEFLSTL
# Description: as §1
# A quantitative measurement of individual enzymes' substrate specificity is possible via the determination of the kinetic parameters KM and kcat. […]
# as §2
# [3] = tested on: E. coli TOP10 and E. coli KY895; assay: fNA uptake by fluorescence microscopy, strains without exogenous kinase; format: cell-based; details: both strains, no exogenous type-I kinase
# Method: To validate the accumulation of the fluorescent nucleotides inside bacterial cells, a series of fNA-uptake experiments was conducted in two E. coli strains. The E. coli TOP10 (Invitrogen) carries a native type-II thymidine kinase while E. coli KY895 is a thymidine kinase-deficient laboratory strain.
# [4] = target: T3, 2′-deoxyribonucleoside kinase from Drosophila melanogaster (DmdNK) (Drosophila melanogaster, UniProt Q9XZT6); assay: spectrophotometric coupled-enzyme kinase assay, DmdNK; format: biochemical; details: wild type DmdNK, kcat/KM data FIG. 10A/11A, agrees with FACS FIG. 11B
# T3 construct: made in house; host or cells: E. coli, pET-14b (Novagen)
# T3 sequence (Q9XZT6 1-250): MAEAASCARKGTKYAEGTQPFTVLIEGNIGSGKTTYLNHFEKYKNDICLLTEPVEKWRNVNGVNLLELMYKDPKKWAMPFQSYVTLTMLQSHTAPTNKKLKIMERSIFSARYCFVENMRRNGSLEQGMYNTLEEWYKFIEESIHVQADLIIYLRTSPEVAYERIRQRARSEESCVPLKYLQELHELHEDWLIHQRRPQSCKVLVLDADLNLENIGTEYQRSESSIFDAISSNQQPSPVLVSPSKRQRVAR
# Description: To investigate the kinetic properties of the above-described fNAs in vitro, a pET-based protein overexpression system was established for the production and purification of milligram quantities of individual dNKs. The genes for human 2′-deoxycytidine kinase (dCK) and fruitfly dNK (DmdNK), as well as the thymidine kinase from the bacterium Thermotoga maritime (TmTK) were subcloned into pET-14b (Novagen), an IPTG-inducible protein overexpression system that also introduces a poly-His tag at the target protein's amino terminus. Following protein overexpression, the tag enables one-step purification of the corresponding proteins on Ni-affinity resin, yielding enzyme of >95% purity as determined by SDS-PAGE. This protein overexpression system was successfully applied for the listed wild type kinases above, as well as for isolating engineered enzymes.
# A quantitative measurement of individual enzymes' substrate specificity is possible via the determination of the kinetic parameters KM and kcat. Consistent with the literature, each kinase will be described by its relative activity for a fNA in comparison to its corresponding NA and thymidine: kcat(fNA)/kcat(NA), as well as by its relative catalytic efficiency: kcat/KM(fNA)/kcat/KM(NA). […]
# as §2
# [5] = tested on: E. coli expressing DmdNK from pDIM, pBAD or pET vectors; assay: flow cytometry (FACS) of E. coli overexpressing DmdNK; format: cell-based; details: pDIM vector in E. coli KY895, FIG. 9
# Method: In a typical flow cytometry experiment, bacterial cultures are grown to mid-log phase and protein expression is induced for 4 h, followed by the addition of the fN or fNA to the culture broth. Cells are incubated for another 2 h prior to centrifugation and three wash-cycles with PBS buffer to reduce the fluorescence background. Cultures are then analyzed on a Becton Dickinson FACSVantage SE, equipped with a UV laser.
# Several experiments were conducted to validate the design for a FACS-based high-throughput screening system for engineered dNKs. A first set of experiments addressed three main questions: a) what is an appropriate host/expression system for kinases in conjunction with fNAs (FIG. 9), b) are the fluorescent properties of the above-described fNAs sufficient for FACS, and c) what is the dynamic range of this screening system? […] In contrast, both the pET and pBAD system yield populations with a more significant portion of “positives”, cells with 10 to 20-fold higher fluorescence than background.
# [6] = tested on: E. coli KY895 with pDIM-tDmdNK and TOP10 with pBAD-tDmdNK; assay: fNA accumulation by fluorescence microscopy, bacteria expressing DmdNK; format: cell-based; details: plasmid-encoded exogenous DmdNK, both strains, FIG. 8
# Description: FIG. 8 illustrates the fluorescence microscopy of E. coli KY895 with pDIM-tDmdNK (left) and TOP10 with pBAD-tDmdNK (right) in the presence of 1 (100× magnification; excitation: Hg-lamp at 325 nm). Noticeable in the two images of FIG. 8 is the highly variable fluorescence intensity in the E. coli KY895/pDIM sample, caused by disproportionate expression levels of the lac-promoter system. On the contrary, the arabinose-controlled pBAD system in E. coli TOP10 facilitates steadier kinase expression levels, resulting in a more uniform fluorescence signal.
# T1 sequence (Q9WYN2 whole entry): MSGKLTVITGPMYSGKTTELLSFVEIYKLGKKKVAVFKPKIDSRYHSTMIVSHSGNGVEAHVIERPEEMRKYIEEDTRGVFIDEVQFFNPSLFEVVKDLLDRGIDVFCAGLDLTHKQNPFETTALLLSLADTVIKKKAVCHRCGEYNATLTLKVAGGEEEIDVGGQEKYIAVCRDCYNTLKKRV
SMILES,phosphorylation by type-II kinases [1],substrate activity / phosphorylation by dCK [2],fluorescence signal in cells [3],substrate activity / phosphorylation by DmdNK [4],fluorescent cell population [5],accumulation of fluorescent probe inside cells [6]
"Cc1cc2cn([C@H]3C[C@H](O)[C@@H](CO)O3)c(=O)nc2o1 [compound 1, 6-methyl-3-(β-D-2′-deoxyribofuranosyl)furano-[2,3-d]pyrimidin-2-one]",no detectable phosphorylation,no activity,no fluorescence signal beyond the cellular autofluorescence,strong activity and good substrate and good,small subpopulation with fluorescence above background,accumulation of the fluorescent probe inside both strains
"Cc1cc2cn(C3CC(N=[N+]=[N-])C(CO)O3)c(=O)nc2o1 (centres unmarked) [compound 16, 3-(4-azido-5-(hydroxymethyl)-tetrahydrofuran-2-yl)-6-methylfuro[2,3-d]pyrimidin-2(3H)-one]",,,,only background phosphorylation,,
"Cc1cc2cn(C3CCC(CO)O3)c(=O)nc2[nH]1 (centres unmarked) [compound 25, 3-(5-(hydroxymethyl)-tetrahydrofuran-2-yl)-6-methyl-3H-pyrrolo[2,3-d]pyrimidin-2(7H)-one]",,,,no detectable activity,,

# — patent publication US20100112561A1, “FLUORESCENT NUCLEOSIDE ANALOGUES” (priority 2006, published 2010)
